Measured values: the supplement of paper PMC8988213
Where a name gives a salt, the structure may show the parent alone.

How the values were obtained:
[1] = tested on: ID188 patient-derived PDAC 2D line (pre-FOLFIRINOX); experiment: normalised area under dose-response curve (viability relative to DMSO, 7 doses up to 10 µM) (fraction (AUC)); higher = less sensitive (more viability retained); settings: 72 h; top dose: 10 µM
Procedure: (§1)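 Patient-derived 2D PDAC cells (ID188 pre-FOLFIRINOX, passage 5+27; ID211 post-FOLFIRINOX, passage 9+11), 1,500-3,000 cells/well in 96-well plates, were treated with a 415-compound Selleck library in seven concentrations (3-fold dilution series, top 10 µM) for 72 h. Viability was read by CellTiter-Glo ATP luminescence, normalised to the DMSO control, and the area under the dose-response curve was computed with the GRmetrics R package; a lower AUC means higher sensitivity.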

[2] = tested on: ID211 patient-derived PDAC 2D line (post-FOLFIRINOX); experiment: as above; settings: 72 h; top dose: 10 µM
Procedure: as §1

| SMILES | normalised area under dose-response curve [1] | normalised area under dose-response curve [2] |
| --- | --- | --- |
| CC[C@]1(O)C[C@H]2CN(CCc3c([nH]c4ccccc34)[C@@](C(=O)OC)(c3cc4c(cc3OC)N(C=O)[C@H]3[C@@](O)(C(=O)OC)[C@H](OC(C)=O)[C@]5(CC)C=CCN6CC[C@]43[C@@H]65)C2)C1 [Vincristine sulfate] | 0.558 | 0.441 |
| CCS(=O)(=O)Nc1ccc(Oc2ccc(F)cc2F)c(-c2cn(C)c(=O)c3[nH]ccc23)c1 [Mivebresib(ABBV-075)] | 0.666 | 0.538 |
| CCc1cc(Nc2nccc(-c3c(-c4ccc(OC)c(C(=O)Nc5c(F)cccc5F)c4)nc4ccccn34)n2)c(OC)cc1N1CCC(N2CCN(S(C)(=O)=O)CC2)CC1 | 0.94 | 0.829 |
| Cc1cc(Nc2ccc(NC(=O)c3ccc(Nc4ccnc5ccccc45)cc3)cc2)nc(N)n1 [SGI-1027] | 0.662 | 0.569 |
| O=C1C2CCN(CC2)C1(CO)CO [PRIMA-1] | 0.947 | 0.867 |
| CNC(=O)c1cc(Oc2ccc3nc(N[C@@H]4CCCC[C@H]4O)sc3c2)ccn1 [BLZ945] | 0.905 | 0.914 |
| CN(C)CCCNC(=O)c1ccc(-c2cc(O)c3ncccc3c2)cc1 [ML324] | 0.953 | 0.774 |
| O=C(O)c1ccc(O)c2ncccc12 [IOX1] | 0.95 | 0.871 |
| CN1CCN(c2ccc3nc(-c4c(N)c5c(F)cccc5[nH]c4=O)[nH]c3c2)CC1 [Dovitinib (TKI258) Lactate] | 1.01 | 0.904 |
| Cc1c(NC(=O)c2cc(C(N)=O)nc3cc(F)ccc23)c(C(F)(F)F)nn1Cc1ccc(C#N)cc1 [BAY-876] | 0.826 | 0.718 |
| CCn1c(-c2nonc2N)nc2c(C#CC(C)(C)O)ncc(OC[C@H]3CCCNC3)c21 | 0.83 | 0.836 |
| CC[C@@]1(O)C(=O)OCc2c1cc1n(c2=O)Cc2cc3c(CN(C)C)c(O)ccc3nc2-1 [Topotecan HCl] | 0.523 | 0.464 |
| Nc1ncn([C@@H]2O[C@H](CO)[C@@H](O)[C@H]2O)c(=O)n1 [Azacitidine] | 0.855 | 0.977 |
| Cc1cc2c(C(=O)NC[C@H](C)c3ccccc3)c(O)c(O)cc2c(O)c1-c1c(C)cc2c(C(=O)NC[C@H](C)c3ccccc3)c(O)c(O)cc2c1O [Sabutoclax] | 0.822 | 0.909 |
| COc1cc(C(C)=O)ccc1O [Apocynin] | 0.915 | 0.816 |
| C[C@]1(O)C[C@@H](c2nc(-c3ccc4ccc(-c5ccccc5)nc4c3)c3c(N)nccn32)C1 [Linsitinib (OSI-906)] | 0.84 | 0.593 |
| CCOc1ccn(-c2ccc(F)cc2)c(=O)c1C(=O)Nc1ccc(Oc2ccnc(N)c2Cl)c(F)c1 | 0.882 | 0.945 |
| CC(C)N(CCCNC(=O)Nc1ccc(C(C)(C)C)cc1)C[C@H]1O[C@@H](n2cc(Br)c3c(N)ncnc32)[C@H](O)[C@@H]1O [SGC 0946] | 0.94 | 0.809 |
| COc1cc(Br)c(Nc2nc(-c3c(C)nc4ncccn34)cs2)c(Br)c1 [PTC-209 HBr] | 0.836 | 0.819 |
| COc1ccc2c(c1)c(CC(=O)N1CCOCC1)c(C)n2C(=O)c1ccc(Cl)cc1 [BML-190] | 0.958 | 1.01 |
| Cc1cnc(-c2ccccc2C(C)C)nc1NCc1ccc(-n2ccnn2)cc1 [ML323] | 0.932 | 0.871 |
| NC[C@@](O)(c1ccc(Cl)cc1)c1ccc(-c2cn[nH]c2)cc1 | 1.03 | 0.981 |
| O=C(Nc1ccccc1)c1cc([N+](=O)[O-])ccc1Cl [GW9662] | 0.931 | 0.936 |

| SMILES | normalised area under dose-response curve [1] | normalised area under dose-response curve [2] |
| --- | --- | --- |
| NS(=O)(=O)c1ccc(NC(=O)Nc2ccc(F)cc2)cc1 [U-104] | 0.94 | 0.976 |
| COC(=O)c1ccc([C@H]2c3[nH]c4ccccc4c3C[C@H](C(=O)OC)N2C(=O)CCl)cc1 [RSL3] | 0.465 | 0.175 |
| O=C(Nc1cccc(Nc2ncc(Br)c(NCCc3cnc[nH]3)n2)c1)N1CCCC1 [BX-912] | 0.595 | 0.893 |
| CC(C)Nc1cc(-c2c[nH]c(C(=O)N[C@H](CO)c3cccc(Cl)c3)c2)c(Cl)cn1 | 0.881 | 0.687 |
| Cc1sc2c(c1C)C(c1ccc(Cl)cc1)=N[C@@H](CC(N)=O)c1nnc(C)n1-2 [CPI-203] | 0.877 | 0.597 |
| Cn1cc(/C=C2\C(=O)Nc3cccnc32)c2ccccc21 | 0.94 | 0.914 |
| CC(C)(C#N)c1cc(Cn2cncn2)cc(C(C)(C)C#N)c1 [Anastrozole] | 0.939 | 0.799 |
| COC(=O)c1ccc2c(C(=Nc3ccc(N(C)C(=O)CN4CCN(C)CC4)cc3)c3ccccc3)c(O)[nH]c2c1 [Nintedanib Ethanesulfonate Salt] | 0.833 | 0.791 |
| CNC(=O)c1cc(Oc2ccc(NC(=O)Nc3ccc(Cl)c(C(F)(F)F)c3)c(F)c2)ccn1 [Regorafenib (BAY 73-4506)] | 0.775 | 0.936 |
| CCC(CC)CC1(C(=O)Nc2ccccc2SC(=O)C(C)C)CCCCC1 | 0.929 | 0.859 |
| C=CC(=O)N1CCC[C@@H](n2nc(-c3ccc(Oc4ccccc4)cc3)c3c(N)ncnc32)C1 | 0.794 | 0.71 |
| O=C(O)c1nn(Cc2ccc(Cl)cc2Cl)c2ccccc12 [Lonidamine] | 0.934 | 0.87 |
| Cn1nccc1Nc1nccc(-c2ccn([C@H](CO)c3ccc(Cl)c(F)c3)c(=O)c2)n1 [GDC-0994] | 0.824 | 0.677 |
| O=C(Cc1ccc(-c2ccc(OCCN3CCOCC3)cc2)cn1)NCc1ccccc1 [KX2-391] | 0.624 | 0.508 |
| Nc1ncn([C@H]2C[C@H](O)[C@@H](CO)O2)c(=O)n1 [Decitabine] | 0.909 | 0.82 |
| C=CC(=O)N1CCC(Oc2cc3c(Nc4ccc(Cl)c(Cl)c4F)ncnc3cc2OC)CC1 [Poziotinib (HM781-36B)] | 0.908 | 0.54 |
| O=C(NNc1nc2cc(F)ccc2n2cccc12)c1cnccn1 [SC144] | 0.795 | 0.631 |
| Oc1cc(CNC(=S)/C=C/c2cc(O)c(O)c(Br)c2)cc(O)c1O [NT157] | 0.943 | 0.886 |
| O=C(O)CCN1C(=O)/C(=C/c2ccc(-c3ccc([N+](=O)[O-])cc3)o2)SC1=S [KYA1797K] | 0.976 | 0.835 |
| O=C(O)c1cc(I)ccc1NC(=O)[C@H](Cc1ccccc1)NCc1ccccc1 [CW069] | 0.937 | 0.842 |
| COCC1(CO)C(=O)C2CCN1CC2 (stereo not given) [APR-246 (PRIMA-1MET)] | 0.947 | 0.86 |
| CN(C(=O)c1ccc(F)cc1C(F)(F)F)C1CCN(c2nnc(-c3ccnn3C)c3ccccc23)CC1 | 0.939 | 0.855 |
